Laboratory results from PubChem BioAssay (NCI).
Where “and” joins values, the source holds several entries; their conditions need not be identical. Equal entries are not always repeated.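 Step 1: Grow cells in 96-well plates. Step 2: Expose to compound for 48 hours at 5 concentrations. Step 3: Interpolate endpoints linearly; if unreached, use highest concentration. GI50 marks 50% less growth. TGI marks complete inhibition of growth.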

Legend:
Experiment in all cases: NCI anticancer screen, dose series, 48 h
786-0 renal = test system: 786-0 renal
HCT-15 colon = test system: HCT-15 colon
HOP-62 NSCLC = test system: HOP-62 NSCLC
HT29 colon = test system: HT29 colon
OVCAR-5 ovarian = test system: OVCAR-5 ovarian
RXF 393 renal = test system: RXF 393 renal
SK-MEL-2 melanoma = test system: SK-MEL-2 melanoma
SK-MEL-28 melanoma = test system: SK-MEL-28 melanoma
BT-549 breast = test system: BT-549 breast
NCI/ADR-RES ovarian = test system: NCI/ADR-RES ovarian

Structure (SMILES)	TGI (786-0 renal)	TGI (HCT-15 colon)	TGI (HOP-62 NSCLC)	TGI (HT29 colon)	TGI (OVCAR-5 ovarian)	TGI (RXF 393 renal)	TGI (SK-MEL-2 melanoma)	TGI (SK-MEL-28 melanoma)	GI50 (786-0 renal)	GI50 (BT-549 breast)	TGI (BT-549 breast)	GI50 (HCT-15 colon)	GI50 (HOP-62 NSCLC)	GI50 (OVCAR-5 ovarian)	GI50 (RXF 393 renal)	GI50 (SK-MEL-2 melanoma)	GI50 (SK-MEL-28 melanoma)	GI50 (HT29 colon)	GI50 (NCI/ADR-RES ovarian)	TGI (NCI/ADR-RES ovarian)
O=C(CC1(O)C(=O)Nc2ccc(Br)cc21)c1ccc(Cl)cc1Cl (configuration not stated)	> 100 µM	> 100 µM	> 100 µM	> 100 µM	> 100 µM	> 100 µM	> 100 µM	> 100 µM												
O=[N+]([O-])c1ccc(-c2noc(-c3ccc(Cl)cc3)c2C2=NCCN2)cc1	> 100 µM	> 100 µM	> 100 µM	> 100 µM	> 100 µM	> 100 µM	> 100 µM	> 100 µM												
COc1cc2c(cc1OC)C(Sc1ccc(SC)cc1)c1c(nc(N)c(C#N)c1N)O2 (configuration not stated)	2.85 µM	2.91 µM	3.26 µM		3.5 µM	2.52 µM	2.9 µM	3.22 µM	1530 nM	1380 nM	2670 nM	1440 nM	1780 nM	1870 nM	1250 nM	1480 nM	1720 nM			
CC(=O)NC1C(OCc2ccccc2)OC(CO)C(O)C1OC(C)C(=O)N[C@@H](C)C(=O)N[C@H](CCC(=O)OCCNc1c2ccccc2nc2cccc([N+](=O)[O-])c12)C(N)=O (some centres not stated)	0.00335 µM and 0.00671 µM	0.00156 µM		0.00443 µM	0.0061 µM	0.00304 µM	0.00414 µM	0.0118 µM												
COC(=O)C1=C(c2ccc(OC)c(OC)c2)OC(c2cc(OC)c(OC)c(OC)c2)C1 (configuration not stated)	74.4 µM		47.4 µM	> 100 µM	> 100 µM	66.9 µM	> 100 µM	> 100 µM												
CCN(CC)c1ccc(N=Nc2ccc([N+](=O)[O-])cc2OC(=O)/C=C/c2ccccc2)c(OC(=O)/C=C/c2ccccc2)c1	> 100 µM	> 100 µM	> 100 µM	> 100 µM		> 100 µM	> 100 µM	> 100 µM												
O=C1NC(=O)C(=Nc2cccc3c(=O)[nH][nH]c(=O)c23)C(c2nc3ccccc3s2)C1=O (configuration not stated)	> 100 µM	> 100 µM	> 100 µM	> 100 µM		> 100 µM	> 100 µM	> 100 µM												
Cc1ccc(/C=C2\CN(C(=O)C(Cl)Cl)C/C(=C\c3ccc(C)cc3)C2=O)cc1	0.397 µM	0.638 µM	1.28 µM		1.46 µM	0.507 µM	5.5 µM	1.19 µM	194 nM			185 nM	298 nM	333 nM	216 nM	1800 nM	319 nM	241 nM	341 nM	
COC(=O)C(=CNC(N)=O)C(=O)OC	> 100 µM	> 100 µM	> 100 µM	> 100 µM	> 100 µM		> 100 µM	> 100 µM												> 100 µM
C[N+](C)(C)CC1CCC/C1=N/O (configuration not stated)	44.5 µM	38.8 µM	> 100 µM	> 100 µM	> 100 µM	> 100 µM	> 100 µM	> 100 µM												
Cn1c(=O)c(NC(=O)C(Cl)(Cl)Cl)nc2ccccc21	> 100 µM	> 100 µM	> 100 µM	> 100 µM		> 100 µM	> 100 µM	> 100 µM												
CN=C(NC(=S)N(C)C)N(C)C	> 100 µM	> 100 µM	> 100 µM	> 100 µM	> 100 µM	> 100 µM	> 100 µM	> 100 µM												
